Source: ChEMBL document CHEMBL1145059, “Bispyridinium cyclophanes: novel templates for human choline kinase inhibitors” (J Med Chem, 2003)

What was measured:
HT-29 = experiment: In vitro inhibition of proliferation in ras transformed cells on the HT-29 (Human tumor) cell line; assay type: functional, cell-based
Choline kinase alpha = Choline kinase alpha (Homo sapiens, UniProt P35790); experiment: Ex vivo inhibitory activity against human choline kinase was determined
Choline kinase alpha, sequence (P35790 whole entry): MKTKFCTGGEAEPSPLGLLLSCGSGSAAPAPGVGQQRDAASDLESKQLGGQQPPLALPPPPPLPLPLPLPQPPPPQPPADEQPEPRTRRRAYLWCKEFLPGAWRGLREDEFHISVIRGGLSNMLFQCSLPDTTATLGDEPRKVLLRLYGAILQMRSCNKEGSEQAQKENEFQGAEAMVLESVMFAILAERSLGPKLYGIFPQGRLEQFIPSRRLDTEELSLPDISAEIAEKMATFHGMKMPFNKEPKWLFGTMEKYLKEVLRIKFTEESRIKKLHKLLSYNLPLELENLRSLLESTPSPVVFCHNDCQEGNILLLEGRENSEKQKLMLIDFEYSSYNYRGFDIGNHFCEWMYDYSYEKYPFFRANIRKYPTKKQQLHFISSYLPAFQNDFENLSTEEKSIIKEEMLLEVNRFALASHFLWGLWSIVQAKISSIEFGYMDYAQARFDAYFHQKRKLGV

SMILES | IC50 (HT-29) | IC50 (Choline kinase alpha)
c1cc2cc(c1)CNc1cc[n+](cc1)Cc1cccc(c1)C[n+]1ccc(cc1)NC2 | > 100 µM | 13.2 µM
c1cc2cc(c1)CNc1cc[n+](cc1)Cc1ccc(cc1)C[n+]1ccc(cc1)NC2 | 28.8 µM | 0.3 µM
c1cc2ccc1CNc1cc[n+](cc1)Cc1ccc(cc1)C[n+]1ccc(cc1)NC2 | 36.9 µM | 2.1 µM
CN(c1ccc(Cl)cc1)c1cc[n+](Cc2cc(C[n+]3ccc(N(C)c4ccc(Cl)cc4)cc3)cc(C[n+]3ccc(N(C)c4ccc(Cl)cc4)cc3)c2)cc1 | – | 1.4 µM
c1cc2cc(c1)C[n+]1ccc(cc1)NCc1ccc(cc1)CNc1cc[n+](cc1)C2 | 58.6 µM | 24.8 µM
